Results published in patent US9724408B2, “Compositions and methods for activating stimulator of interferon gene-dependent signalling” (ADURO BIOTECH, INC., priority 2013, dated 2017).

Legend:
[1] = tested on: 4T1; assay: Re-challenge of surviving mice with 4T1 tumor cells on the contralateral flank; format: in vivo, BALB/c mice
Experimental: To determine whether the synthetic derivative CDN molecules elicit durable and effective anti-tumor T-cell immunity, 6-8 week old female BALB/c mice (8 mice per group) were implanted with CT26 colon carcinoma cells (1×10^5 cells in 100 μL PBS). Mice were treated with Rp, Rp dithio cyclic [A(2′,5′)pA(3′,5′)p] (ML RR-CDA) compound ([…] in a total volume of 40 μL HBSS) or HBSS vehicle control, and tumor growth was monitored as per previous example. Mice were bled on day 18 post tumor implantation and PBMCs were isolated by Ficoll gradient (Miltenyi Biotech). 5×10^4 PBMCs were stimulated overnight in an IFNγ ELISpot assay with media alone (unstimulated), or with 1 μM of the endogenous H-2 L^d-restricted tumor rejection antigen AH1 peptide in the presence of 1×10^5 naïve splenocytes as feeder cells. IFN-γ ELISpot plates were developed and quantified using a CTL plate reader and ImmunoSpot software. On day 55 post tumor implantation, surviving mice and age-matched naïve control mice were implanted on the contralateral flank with either CT26 or 4T1 (both 1×10^5 cells in 100 μL PBS) tumor cells (4 mice per group), and monitored for tumor growth. […]

[2] = tested on: B16 melanoma cells; assay: Abscopal model, B16 flank tumor plus intravenous B16 lung colonization; format: in vivo, C57BL/6 mice; conditions: three injections
Experimental: To determine whether the synthetic CDN derivative molecules promote abscopal anti-tumor immunity in an alternative tumor model and mouse genetic background, 6-8 week old female C57BL/6 mice (8 mice per group) were implanted with B16 melanoma cells (5×10^4 cells in 100 μL PBS) in the right flank. One week later mice were implanted intravenously with 1×10^5 B16 melanoma cells to colonize the lung, along with a group of naïve age-matched control mice. When the subcutaneous flank tumor reached approximately 75 mm^3 on day 13, mice were treated intratumorally with Rp, Rp dithio cyclic [A(2′,5′)pA(3′,5′)p] (ML RR-CDA) (50 μg in a total volume of 40 μL HBSS) or HBSS vehicle control, for three injections as per previous protocol. On day 28 post subcutaneous tumor implantation (day 21 post i.v. implantation), mice were euthanized and lungs were harvested and fixed (10% Neutral Buffered Formalin), and the number of lung tumor nodules counted using a dissecting microscope.

[3] = tested on: AH1 peptide; assay: AH1-specific IFN-γ ELISpot of PBMCs from treated CT26-bearing mice; format: in vivo, BALB/c mice; conditions: day 18 post tumor implantation, 1 μM AH1 peptide, P=0.003, FIG. 21B
Experimental: To determine whether the synthetic derivative CDN molecules elicit durable and effective anti-tumor T-cell immunity, 6-8 week old female BALB/c mice (8 mice per group) were implanted with CT26 colon carcinoma cells (1×10^5 cells in 100 μL PBS). Mice were treated with Rp, Rp dithio cyclic [A(2′,5′)pA(3′,5′)p] (ML RR-CDA) compound ([…] in a total volume of 40 μL HBSS) or HBSS vehicle control, and tumor growth was monitored as per previous example. Mice were bled on day 18 post tumor implantation and PBMCs were isolated by Ficoll gradient (Miltenyi Biotech). 5×10^4 PBMCs were stimulated overnight in an IFNγ ELISpot assay with media alone (unstimulated), or with 1 μM of the endogenous H-2 L^d-restricted tumor rejection antigen AH1 peptide in the presence of 1×10^5 naïve splenocytes as feeder cells. IFN-γ ELISpot plates were developed and quantified using a CTL plate reader and ImmunoSpot software. On day 55 post tumor implantation, surviving mice and age-matched naïve control mice were implanted on the contralateral flank with either CT26 or 4T1 (both 1×10^5 cells in 100 μL PBS) tumor cells (4 mice per group), and monitored for tumor growth.

[4] = tested on: 4T1 mammary carcinoma cells; assay: Abscopal model, 4T1 tumors on contralateral flanks, primary tumor injected; format: in vivo, BALB/c mice; conditions: 50 μg into the primary tumor only, three injections
Description: The STING-dependent induction of tumor-specific T cell immunity protects animals against subsequent challenge with the autologous tumor. It will be apparent to those skilled in the art that advanced cancer is metastatic, and that to be effective, therapies must inhibit outgrowth of distal masses. Treatment of one or selected lesions that inhibits tumor outgrowth of distal untreated tumor masses is known as an abscopal effect. To test whether IT injection of a selected tumor with synthetic CDN derivative molecules inhibited the tumor outgrowth of a distal untreated tumor, (A) CT26 colon carcinoma cells (1×10^5 cells in 100 μL PBS) and (B) 4T1 mammary carcinoma cells (1×10^5 cells in 100 μL PBS) were implanted subcutaneously on the contralateral flanks of 6-8 week old female BALB/c mice (8 mice per group). Treatments began when tumors reached a volume of approximately 75 mm^3, on day 13 post tumor implantation. The Rp, Rp dithio cyclic [A(2′,5′)pA(3′,5′)p] (ML RR-CDA) compound (50 μg in a total volume of 40 μL HBSS), or HBSS vehicle control, was administered by subcutaneous injection into the center of the primary (right side) tumor only using a 27 gauge needle. Injections were repeated every three days, for a total of three intratumoral injections.

[5] = molecular target: T1, hSTING (REF) (Homo sapiens, UniProt Q86WV6); assay: IFNβ-LUC reporter in HEK293T cells expressing hSTING (REF); format: cell-based; conditions: 10 μM, digitonin permeabilization, 6 hrs, FIG. 14
T1 construct: GFP; expressed in transfected cells; plasmid from the Vance Laboratory, UC Berkeley
T1 sequence (Q86WV6 whole entry): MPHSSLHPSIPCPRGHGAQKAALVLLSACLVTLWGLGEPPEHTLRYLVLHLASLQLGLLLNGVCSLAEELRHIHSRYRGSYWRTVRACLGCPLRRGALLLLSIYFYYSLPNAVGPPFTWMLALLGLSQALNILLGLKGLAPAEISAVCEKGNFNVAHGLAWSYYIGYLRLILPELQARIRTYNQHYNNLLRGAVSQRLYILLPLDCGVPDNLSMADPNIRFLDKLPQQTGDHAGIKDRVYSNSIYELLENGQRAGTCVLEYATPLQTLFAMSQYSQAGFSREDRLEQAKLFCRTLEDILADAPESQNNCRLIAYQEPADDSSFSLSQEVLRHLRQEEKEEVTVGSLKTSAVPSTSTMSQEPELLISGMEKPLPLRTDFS
Experimental: MSCV2.2 plasmids encoding hSTING(REF)-GFP, hSTING(WT)-GFP, hSTING(HAQ)-GFP, hSTING(Q)-GFP and mSTING(WT)-GFP were obtained from the Vance Laboratory at UC Berkeley. hSTING(AQ)-GFP was derived from hSTING(Q)-GFP using a QuickChange Site-Directed Mutagenesis kit (Stratagene). […] 1×10^4 HEK293T STING cells were seeded in 96-well plates and transiently transfected (using Lipofectamine 2000) with 50 ng of a human IFN-β reporter plasmid (pLuc-IFN-β) expressing the human IFN-β promoter upstream of a luciferase reporter and 10 ng of TK-renilla for normalization. 24 hours later, cells were stimulated with native and synthetic CDN derivative molecules using digitonin permeabalization to ensure uniform uptake. Each STING cell line was stimulated with 10 μM of cyclic [G(3′,5′)pA(3′,5′)p] (cGAMP), cyclic [G(2′,5′)pA(3′,5′)p] […] (RR-CDA), cyclic [A(2′,5′)pA(3′,5′)p] […] (RR-CDG), cyclic [G(2′,5′)pG(3′,5′)p] […] (ML RR-CDG) in 25 ul digitonin buffer (50 mM HEPES, 100 mM KCL, 3 mM MgCl2, 0.1 mM DTT, 85 mM Sucrose, 0.2% BSA, 1 mM ATP, 0.1 mM GTP, 10 ug/ml digitonin). After 20 min, the stimulation mixtures were removed and 200 ul of standard RPMI media was added. After stimulation for 6 hrs, cell lysates were prepared and reporter gene activity measured using the Dual Luciferase Assay System (Promega) on a Spectramax M3 luminometer.

| SMILES | protection against 4T1 re-challenge, survivors of 4T1 tumors ([1]; re-challenge on day 35 post tumor implantation, FIG. 22B) | protection against 4T1 re-challenge, survivors of CT26 tumors ([1]; re-challenge on day 55 post tumor implantation, FIG. 21C) | growth of distal lung tumor nodules ([2]; 50 μg into the flank tumor, lungs on day 28, FIG. 24B, 24C) | tumor growth of the primary flank tumor ([2]; 50 μg intratumoral, P<0.001, FIG. 24A) | IFN-γ production of PBMCs in response to AH1 peptide [3] | inhibition of the treated primary tumor, 4T1 ([4]; FIG. 23B) | outgrowth of the contralateral (untreated) tumor, 4T1 ([4]; P=0.0019, FIG. 23B) | IFNβ reporter response of hSTING (REF) [5] |
| --- | --- | --- | --- | --- | --- | --- | --- | --- |
| Nc1ncnc2c1ncn2[C@@H]1O[C@@H]2COP(O)(=S)O[C@@H]3C(O)[C@@H](COP(O)(=S)O[C@H]2[C@H]1O)O[C@H]3n1cnc2c(N)ncnc21 (some centres unmarked) [ML RR-CDA, dithio-[RP, RP]-cyclic-[A(2′,5′)pA(3′,5′)p]] | complete protection | not inhibiting growth of the 4T1 tumor type | significantly inhibited the growth of distal lung tumor nodules | significantly inhibited tumor growth of the primary flank tumor | significantly higher IFN-γ in response to AH1 peptide stimulation, as compared to the HBSS-treated control group | complete inhibition of the treated primary tumor | significantly inhibited |  |
| Nc1nc2c(ncn2[C@@H]2O[C@@H]3CO[P@@](O)(=S)O[C@@H]4[C@H](O)[C@@H](CO[P@@](O)(=S)O[C@H]3[C@H]2O)O[C@H]4n2cnc3c(=O)[nH]c(N)nc32)c(=O)[nH]1 [ML RR-CDG, dithio-[RP,RP]-cyclic-[G(2′,5′)pG(3′,5′)p]] |  |  |  |  |  |  |  | responsive to stimulation |
